Test results as given in patent US20100048575A1, “NOVEL TETRACYCLIC INHIBITORS OF CYSTEINE PROTEASES, THE PHARMACEUTICAL COMPOSITIONS THEREOF AND THEIR THERAPEUTIC APPLICATIONS” (priority 2006, published 2010).

Biological target: T1, USP8 (Homo sapiens, UniProt P40818)
T1 construct: His tag (from vector pFastBac-HT) (N); made in house; host or cells: insect cells (Sf9 or High Five), baculovirus
T1 sequence (P40818 1-1118): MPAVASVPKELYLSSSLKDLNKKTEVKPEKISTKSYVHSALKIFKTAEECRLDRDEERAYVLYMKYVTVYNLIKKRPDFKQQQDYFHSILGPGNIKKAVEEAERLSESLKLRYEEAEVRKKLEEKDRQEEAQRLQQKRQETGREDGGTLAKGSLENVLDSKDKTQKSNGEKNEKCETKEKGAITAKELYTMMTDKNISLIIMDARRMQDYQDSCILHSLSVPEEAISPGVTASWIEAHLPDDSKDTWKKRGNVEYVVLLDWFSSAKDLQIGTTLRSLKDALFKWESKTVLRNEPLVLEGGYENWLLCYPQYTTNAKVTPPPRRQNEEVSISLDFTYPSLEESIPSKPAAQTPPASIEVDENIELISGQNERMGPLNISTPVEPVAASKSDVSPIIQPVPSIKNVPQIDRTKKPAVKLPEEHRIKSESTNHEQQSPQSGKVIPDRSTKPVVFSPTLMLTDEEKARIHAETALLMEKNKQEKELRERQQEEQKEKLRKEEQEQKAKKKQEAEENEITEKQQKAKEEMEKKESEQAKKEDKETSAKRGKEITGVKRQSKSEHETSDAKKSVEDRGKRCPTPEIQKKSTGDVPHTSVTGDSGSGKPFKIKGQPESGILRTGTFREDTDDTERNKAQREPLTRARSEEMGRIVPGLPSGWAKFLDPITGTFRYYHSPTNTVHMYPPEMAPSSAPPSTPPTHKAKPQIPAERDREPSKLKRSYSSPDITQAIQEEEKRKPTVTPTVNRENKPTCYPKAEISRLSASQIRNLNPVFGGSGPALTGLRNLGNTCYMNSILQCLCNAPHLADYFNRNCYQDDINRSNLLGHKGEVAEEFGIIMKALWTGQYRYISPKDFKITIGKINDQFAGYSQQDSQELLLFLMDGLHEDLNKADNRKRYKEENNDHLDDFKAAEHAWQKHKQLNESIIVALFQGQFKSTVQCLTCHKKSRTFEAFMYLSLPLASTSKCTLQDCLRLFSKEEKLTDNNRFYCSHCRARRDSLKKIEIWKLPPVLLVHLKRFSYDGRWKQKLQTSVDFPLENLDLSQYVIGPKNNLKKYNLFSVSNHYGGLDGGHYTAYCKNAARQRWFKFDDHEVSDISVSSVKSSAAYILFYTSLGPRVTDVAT
Assay: USP8 activity assay (Ub-AMC)
Type: biochemical
Conditions: 400 nM Ub-AMC, 630 pM enzyme, pH8.8, 30 min pre-incubation, 60 min at 37° C., sigmoidal fit; read-out: USP8 (inhibition of cysteine protease activity)
From the text: The cDNA encoding USP8 was obtained by PCR amplification from placenta mRNA. USP8 cDNA was subcloned by PCR into a baculovirus expression vector (pFastBac-HT; Invitrogen). A cDNA encoding a mutated USP8 was generated by mutagenic PCR. The corresponding protein encodes a cysteine to alanine substitution at residue 786. The sequences were ascertained by sequencing of the entire open reading frame. Bacmids encoding […] were generated following. DH10bac transposition. The corresponding bacmids were transfected into insect cells (Sf9). Viruses were recovered from culture supernatant and amplified twice. Insect cells (Sf9 or High Five; Invitrogen) were infected for 72 hours. Total cell lysates were harvested and lyzed in lysis buffer (Tris HCl 50 mM pH7.6; 0.75% NP40; 500 mM NaCl; 10% glycerol; 1 mM DTT; 10 mM imidazole; Protease Inhibitor Cocktail; AEBSF 20 μg.ml^−1; Aprotinin 10 μg.ml^−1). Proteins were affinity purified on metal affinity resins (Talon Metal affinity resin; BD Biosciences). Bound materials were extensively washed in wash buffer (50 mM Sodium Phosphate pH 7.0; 300 mM NaCl; 10 mM imidazole; 0.5% Triton X-100; 10% glycerol) and eluted from the resin in 250 mM imidazole-containing wash buffer. Proteins were dialyzed in dialysis buffer (Tris HCl pH 7.6 20 mM; NaCl 200 mM; DTT 1 mM; EDTA 1 mM; 10% Glycerol). Proteins purifications were analyzed on 4-12% NuPAGE (Invitrogen).
USP8 was diluted in USP buffer (50 mM Tris HCl; 0.5 mM EDTA; 5 mM DTT; 0.01% Triton X-100; Bovine Serum Albumin 0.05 mg.ml^−1 pH8.8). Compounds stocks (100 mM) were stored at −20° C. in DMSO.
Reactions were performed as duplicates in Black LJL 96 well plates (HE microplates; Molecular Devices; 20 μl final reaction volume). The substrate concentration for USP8 was 400 nM Ub-AMC (Boston Biochem). The concentrations of the enzyme (USP8) in specificity assays was 630 pM. The concentrations were determined in order to perform specificity assays under initial velocities at fixed substrate concentration. Compounds were pre-incubated with enzymes for 30 minutes at 25° C. Reactions were initiated by addition of substrate to the plates containing the enzymes (+/−compounds) diluted in assay buffer. Reactions were incubated for 60 minutes at 37° C. Reactions were stopped by adding acetic acid (100 mM final). Readings were performed on a Pherastar Fluorescent Reader (BMG). λ Emission 380 nm; λ Excitation=460 nm. Data (mean values +/−standard deviation) were analyzed as % of control (no compound) and plotted as percentage versus the Log of the compound concentration using GraphPad (Prism). Data were fitted to a sigmoidal model (variable slope).

| SMILES | IC50 [µM] |
| --- | --- |
| CON=C1c2ccccc2-c2nn3c(C)nnc3nc21 (mixture of isomers) [5a, 3-Methyl-1,2,3a,4,10-pentaaza-cyclopenta[b]fluoren-9-one O-methyl-oxime] | 0.58 |
| CCCCCCCCCCON=C1c2ccccc2-c2nn3nnnc3nc21 (mixture of isomers) [8a, 1,2,3,3a, 4,10-Hexaaza-cyclopenta[b]fluoren-9-one O-decyl-oxime] | 27.8 |
| C=CCON=C1c2ccccc2-c2nn3c(C)nnc3nc21 (mixture of isomers) [5b, 3-Methyl-1,2,3a,4,10-pentaaza-cyclopenta[b]fluoren-9-one O-allyl-oxime] | 0.355 |
| c1ccc(OCCCON=C2c3ccccc3-c3nn4nnnc4nc32)cc1 (mixture of isomers) [8c, 1,2,3,3a,4,10-Hexaaza-cyclopenta[b]fluoren-9-one O-(3-phenoxy-propyl)-oxime] | 0.225 |
| C=CCON=C1c2ccccc2-c2nn3c(CCCC)nnc3nc21 (mixture of isomers) [5d, 3-Butyl-1,2,3a,4,10-pentaaza-cyclopenta[b]fluoren-9-one O-allyl-oxime] | 0.565 |

Now from value to compound:

| IC50 [µM] | SMILES |
| --- | --- |
| 0.807 | CCc1nnc2nc3c(nn12)-c1ccccc1C3=NOCc1ccccc1 (mixture of isomers) [10h, 3-Ethyl-1,2,3a,4,10-pentaaza-cyclopenta[b]fluoren-9-one O-benzyl-oxime] |
| 0.528 | CCc1nnc2nc3c(nn12)-c1ccccc1C3=NOC (mixture of isomers) [10b, 3-Ethyl-1,2,3a,4,10-pentaaza-cyclopenta[b]fluoren-9-one O-methyl-oxime] |
| 0.381 | CCON=C1c2ccccc2-c2nn3c(CC)nnc3nc21 (mixture of isomers) [10d, 3-Ethyl-1,2,3a,4,10-pentaaza-cyclopenta[b]fluoren-9-one O-ethyl-oxime] |
| 0.342 | C=CCON=C1c2ccccc2-c2nn3c(CC)nnc3nc21 (mixture of isomers) [10f, 3-Ethyl-1,2,3a,4,10-pentaaza-cyclopenta[b]fluoren-9-one O-allyl-oxime] |
